From ChEMBL document CHEMBL1955736, “The anomeric mixture of some O-galactolipid derivatives is more toxic against cancer cells than either anomer alone” (Bioorg Med Chem Lett, 2012)

How the values were obtained:
HepG2 = assay: Cytotoxicity against human HepG2 cells after 72 hrs by MTT assay; type: functional, cell-based; details: HepG2, 72 h
A549 = assay: Cytotoxicity against human A549 cells after 72 hrs by MTT assay; type: functional, cell-based; details: A549, 72 h
HeLa = assay: Cytotoxicity against human HeLa cells after 72 hrs by MTT assay; type: functional, cell-based
HCT-116 = assay: Cytotoxicity against human HCT116 cells after 72 hrs by MTT assay; type: functional, cell-based; details: HCT-116, 72 h
[1] = Cytotoxicity against mouse 3T3L1 cells assessed as viability at 100 ug/mL after 72 hrs by MTT assay; type: cell-based; details: 3T3-L1 cells, read-out: Activity

CCCCCCCCCCCCCOC1O[C@H](CO)[C@H](O)[C@H](O)[C@H]1O (mixture of isomers)
IC50 (HepG2): 54.3 µM
IC50 (A549): 39.3 µM
IC50 (HeLa): 57.1 µM
IC50 (HCT-116): 38.7 µM

CCCCCCCCCCCCCCCCO[C@H]1O[C@H](CO)[C@H](O)[C@H](O)[C@H]1O
IC50 (HepG2): > 240 µM
IC50 (A549): 38.5 µM
IC50 (HeLa): 54.6 µM
IC50 (HCT-116): 42.7 µM

CCCCCCCCCCCO[C@@H]1O[C@H](CO)[C@H](O)[C@H](O)[C@H]1O
IC50 (HepG2): 200 µM
IC50 (A549): 118 µM
IC50 (HeLa): 202 µM
IC50 (HCT-116): 155 µM

CCCCCCCCCCCCO[C@H]1O[C@H](CO)[C@H](O)[C@H](O)[C@H]1O
IC50 (HepG2): 138 µM
IC50 (A549): 56.7 µM
IC50 (HeLa): 146 µM
IC50 (HCT-116): 88.8 µM

CCCCCCCCCCCCCO[C@H]1O[C@H](CO)[C@H](O)[C@H](O)[C@H]1O
IC50 (HepG2): 89.9 µM
IC50 (A549): 51.8 µM
IC50 (HeLa): 73.3 µM
IC50 (HCT-116): 75.1 µM

CCCCCCCCCCCCO[C@@H]1O[C@H](CO)[C@H](O)[C@H](O)[C@H]1O
IC50 (HepG2): 162 µM
IC50 (A549): 77.2 µM
IC50 (HeLa): 151 µM
IC50 (HCT-116): 97.8 µM

CCCCCCCCCCCCCCCCO[C@@H]1O[C@H](CO)[C@H](O)[C@H](O)[C@H]1O
IC50 (HepG2): > 240 µM
IC50 (A549): 151 µM
IC50 (HeLa): > 240 µM
IC50 (HCT-116): > 240 µM

CCCCCCCCCCCCCO[C@@H]1O[C@H](CO)[C@H](O)[C@H](O)[C@H]1O
IC50 (HepG2): 142 µM
IC50 (A549): 62 µM
IC50 (HeLa): 148 µM
IC50 (HCT-116): 85.3 µM

CCCCCCCCCCO[C@H]1O[C@H](CO)[C@H](O)[C@H](O)[C@H]1O
IC50 (HepG2): > 240 µM
IC50 (A549): 144 µM
IC50 (HeLa): > 240 µM
IC50 (HCT-116): > 240 µM

CCCCCCCCCCCOC1O[C@H](CO)[C@H](O)[C@H](O)[C@H]1O (mixture of isomers)
IC50 (HepG2): 68.2 µM
IC50 (A549): 45.6 µM
IC50 (HeLa): 60.5 µM
IC50 (HCT-116): 50.9 µM

CCCCCCCCCCCCCCCCOC1O[C@H](CO)[C@H](O)[C@H](O)[C@H]1O (mixture of isomers)
viability at 72 h, 100 ug/mL [1]: 94.3%
IC50 (HepG2): > 240 µM
IC50 (A549): 25.3 µM
IC50 (HeLa): 45 µM
IC50 (HCT-116): 32.2 µM

CCCCCCCCCCCCOC1O[C@H](CO)[C@H](O)[C@H](O)[C@H]1O (mixture of isomers)
IC50 (HepG2): 63.4 µM
IC50 (A549): 40.8 µM
IC50 (HeLa): 58.6 µM
IC50 (HCT-116): 47.7 µM

CCCCCCCCCCCO[C@H]1O[C@H](CO)[C@H](O)[C@H](O)[C@H]1O
IC50 (HepG2): 151 µM
IC50 (A549): 102 µM
IC50 (HeLa): 196 µM
IC50 (HCT-116): 152 µM

CCCCCCCCCCO[C@@H]1O[C@H](CO)[C@H](O)[C@H](O)[C@H]1O
IC50 (HepG2): > 240 µM
IC50 (A549): 157 µM
IC50 (HeLa): > 240 µM
IC50 (HCT-116): > 240 µM

CCCCCCCCCCCCCCCO[C@H]1O[C@H](CO)[C@H](O)[C@H](O)[C@H]1O
IC50 (HepG2): > 240 µM
IC50 (A549): 46.8 µM
IC50 (HeLa): 61.3 µM
IC50 (HCT-116): 52.5 µM

CCCCCCCCCCCCCCO[C@H]1O[C@H](CO)[C@H](O)[C@H](O)[C@H]1O
IC50 (HepG2): 68.1 µM
IC50 (A549): 49.6 µM
IC50 (HeLa): 67 µM
IC50 (HCT-116): 72.8 µM

CCCCCCCCCCOC1O[C@H](CO)[C@H](O)[C@H](O)[C@H]1O (mixture of isomers)
IC50 (HepG2): 192 µM
IC50 (A549): 107 µM
IC50 (HeLa): 180 µM
IC50 (HCT-116): 140 µM
